From patent US20260097047A1, “Small molecule inhibitors of the ribosome biogenesis factor NVL2” (Board of Regents, The University of Texas System, priority 2023, published 2026)

Experiments:
60S biogenesis = test: SNAP-tag labeling of existing and newly synthesized eL36 (60S) and eS17 (40S); type: cell-based, human; settings: 24 hours
Text: The observed reduction in free 60S using polysome profiling could be the consequence of decreased 60S synthesis or accelerated 60S degradation, or a combination of the two. To distinguish between existing and newly synthesized 60S, we engineered HCT116 cells to express a C-terminal SNAP-tag on eL36, a ribosomal protein incorporated into the 60S subunit prior to NVL binding (39) or a control C-terminal SNAP-tag on a component of the small ribosomal subunit, eS17, to monitor 40S biogenesis (40). We first labeled existing eL36 or eS17 in cells with an Oregon green benzylguanine (green). Then, we treated cells for 24 hours with either vehicle or MM017 before adding a 647-SiR benzylguanine to label the pool of proteins synthesized over the 24-hour period and evaluated each polysome profile fraction for either existing or new proteins. […] MM017 treatment had no impact on the levels or fractionation pattern of existing eL36-SNAP.
Next, we examined the impact of MM017 on the subcellular localization of eL36-SNAP (60S) or eS17-SNAP (40S). As expected for mature ribosomes, existing eL36-SNAP was nearly completely cytoplasmic, and treatment with MM017 had no impact on its localization. In vehicle treated cells, newly synthesized eL36-SNAP was both nucleolar and cytoplasmic, reflecting its presence in pre-60S and mature ribosomes. […]

[1] = test system: p53 KO and p21 KO HCT116 cells; test: Growth competition of p53 or p21 knockout versus control HCT116 cells; type: cell-based, human
Text: To better understand how inhibition of NVL by MM017 leads to cell death, we performed a genome wide pooled CRISPR/Cas9 knockout screen in HCT116 cells using a library of guide RNAs targeting 19,114 genes. Cells were pulsed intermittently with vehicle or MM017 over 21 days, at which point MM017 treated cells had undergone 9.79 fewer population doublings. Massively parallel sequencing of PCR products amplified from genomic DNA was used to determine relative levels of sgRNA sequences to infer the relative impact of each gene on compound sensitivity. […] To confirm whether p53 and p21 are required for the anti-proliferative activity of MM017, we performed a growth competition experiment between cells expressing ZsGreen with either p53 or p21 knockout (KO) and control cells expressing mCherry. Without treatment, the ratio between green and red cells was unchanged over time.

NVL = target: T1, NVL (Homo sapiens, UniProt O15381); test: Viability of NVL^AID/AID cells relying on ectopic human NVL (Ph-IAA); type: cell-based; set-up: expressed in transfected cells; host or cells: HCT116 NVL^AID/AID cells (viral infection; 'mock infected' control); settings: endogenous NVL degraded with Ph-IAA; read-out: IC50, cells expressing ectopic human NVL
T1 sequence (O15381 1-856): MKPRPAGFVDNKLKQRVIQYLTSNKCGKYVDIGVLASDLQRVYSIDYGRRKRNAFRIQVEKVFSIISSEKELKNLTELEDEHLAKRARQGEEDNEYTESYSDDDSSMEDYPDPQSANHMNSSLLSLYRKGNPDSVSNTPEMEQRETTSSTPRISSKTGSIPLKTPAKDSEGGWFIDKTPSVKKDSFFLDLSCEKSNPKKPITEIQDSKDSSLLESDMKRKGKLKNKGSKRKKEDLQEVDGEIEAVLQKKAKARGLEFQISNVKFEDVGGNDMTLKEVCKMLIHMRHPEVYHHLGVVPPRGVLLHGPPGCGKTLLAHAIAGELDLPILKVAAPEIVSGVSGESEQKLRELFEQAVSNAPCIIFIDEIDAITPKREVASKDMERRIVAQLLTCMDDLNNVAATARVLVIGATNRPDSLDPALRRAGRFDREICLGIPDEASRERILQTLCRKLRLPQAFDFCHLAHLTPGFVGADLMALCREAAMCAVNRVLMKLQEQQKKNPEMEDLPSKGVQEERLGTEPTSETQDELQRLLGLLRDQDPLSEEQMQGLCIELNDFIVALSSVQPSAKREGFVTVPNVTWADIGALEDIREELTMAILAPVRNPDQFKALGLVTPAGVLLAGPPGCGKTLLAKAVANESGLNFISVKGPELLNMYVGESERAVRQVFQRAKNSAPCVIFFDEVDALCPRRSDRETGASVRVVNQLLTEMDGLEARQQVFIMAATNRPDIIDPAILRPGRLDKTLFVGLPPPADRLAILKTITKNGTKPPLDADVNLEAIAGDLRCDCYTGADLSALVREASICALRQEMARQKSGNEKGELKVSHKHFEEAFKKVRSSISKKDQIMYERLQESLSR
Text: Next, we investigated whether inhibitors of NVL could inhibit the growth of cell line derived xenografts tumors in mice, and whether systemic inhibition of NVL leads to specific toxicities. […] To test the potency of MM927 against mouse NVL within the same cell type, we ectopically expressed either human or mouse NVL in NVL^AID/AID cells. Treatment with Ph-IAA degrades the endogenous protein so that the cells must rely solely on ectopically expressed NVL. In the mock infected cells, degrading NVL^AID/AID by the addition of Ph-IAA reduced cell viability as expected, and the viability was completely rescued by expression of either ectopic mouse or human NVL.

Compound | effect on 40S subunits (eS17-SNAP) (60S biogenesis) | newly synthesized eL36-SNAP in polysome profile fractions (60S biogenesis) | enrichment of p53 or p21 KO cells in growth competition [1] | IC50 (NVL)
COCCN1C(=O)c2ccccc2Sc2cc(NC(=O)c3ccoc3)ccc21 [MM017] | no impact on 40S subunits | reduced in the 60S, 80S, and polysome fractions | dose-dependent enrichment of either p53 or p21 KO cells | –
CC#CCN1C(=O)c2ccc(F)cc2Sc2cc(NC(=O)c3ccc4oc(=O)n(C)c4c3)ccc21 [MM927, N-(10-(But-2-yn-1-yl)-3-fluoro-11-oxo-10,11-dihydrodibenzo[b,f][1,4]thiazepin-7-yl)-3-methyl-2-oxo-2,3-dihydrobenzo[d]oxazole-5-carboxamide] | – | – | – | 51 nM
